The record followed here is patent US12421254B2, “KRAS modulators and uses thereof” (Quanta Therapeutics, Inc., priority 2023, dated 2025).

The target of test [1] is GST-tagged KRAS-G12D (2-169) (Homo sapiens, UniProt P01116, G12D). Briefly: Nucleotide exchange assay (NEA), SOS-mediated, HTRF, KRAS G12D. The class given is biochemical. As to conditions: Table 4; IC50 extracted at 30 min; 20 nM SOScat; read-out: NEA G12D IC50. In a few lines: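 Compound preincubated 1 h at RT with 0.25 nM GST-KRAS-G12D (2-169) and anti-GST Tb donor, then 20 nM SOS1cat (564-1049) and 150 nM GTP-DY-647P1 added; pH 7.3 HEPES buffer with MgCl2 and DTT. HTRF monitored at RT; % inhibition versus DMSO and no-SOS blank, 4-parameter IC50 taken at 30 min.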
Sequence of GST-tagged KRAS-G12D (2-169) (P01116 2-169 isoform P01116-2 G12D): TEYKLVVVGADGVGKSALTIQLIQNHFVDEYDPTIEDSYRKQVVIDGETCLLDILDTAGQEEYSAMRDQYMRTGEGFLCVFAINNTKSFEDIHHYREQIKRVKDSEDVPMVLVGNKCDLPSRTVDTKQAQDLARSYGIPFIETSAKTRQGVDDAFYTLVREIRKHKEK

Test [2] deals with GST-tagged KRAS-G12V (2-169) (Homo sapiens, UniProt P01116, G12V). Briefly: Nucleotide exchange assay (NEA), SOS-mediated, HTRF, KRAS G12V. The class given is biochemical. The note with it: Table 4; IC50 extracted at 90 min; 80 nM SOS. In outline:
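GST-KRAS-G12V (2-169), 0.25 nM, pre-incubated 1 h at RT with compound, then SOS1cat (564-1049) 80 nM and GTP-DY-647P1 150 nM added in HEPES pH 7.3 buffer with MgCl2 and DTT. HTRF via anti-GST Tb cryptate read over 90 min; IC50 from 4-parameter fit at 90 min, blanked to no-SOS reactions.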

Test [3] deals with phospho-ERK in GP2D (KRAS-G12D) cells. Briefly: pERK In Cell Western (ICW) assay (Method B), GP2D. As to conditions: GP2d, 3 h, Table 4. The class given is cell-based. In outline:
(§1)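 3 h cpd, 37 °C, ½-log 9-pt dilution; AGS 5,000 cells/well, GP2D/SW620 10,000 cells/well, plated overnight. PFA fix, Triton perm, anti-pERK o/n 4 °C, IRDye 800 secondary + DRAQ5. pERK/DRAQ5 as % blank; IC50 4-PL.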

Test [4] concerns phospho-ERK in SW620 (KRAS-G12V) cells. Briefly: pERK In Cell Western (ICW) assay (Method B), SW620. The format is cell-based. The note with it: Homo sapiens, SW-620, 3 h, Table 4. In a few lines: as §1

Sequence of GST-tagged KRAS-G12V (2-169) (P01116 2-169 isoform P01116-2 G12V): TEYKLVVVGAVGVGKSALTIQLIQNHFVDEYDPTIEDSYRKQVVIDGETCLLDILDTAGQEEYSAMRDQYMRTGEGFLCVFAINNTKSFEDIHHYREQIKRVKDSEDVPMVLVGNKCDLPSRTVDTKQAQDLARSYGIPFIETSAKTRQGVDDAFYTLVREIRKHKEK

Regarding `CCN(c1nc(OC[C@]2(CO)CCCN2C)nc(N2CC3(C2)SCc2sc(N)c(C#N)c23)n1)[C@H](C)c1cccnc1N` [Compound 213, 2-amino-1′-[4-[[(1R)-1-(2-amino-3-pyridyl)ethyl]-ethyl-amino]-6-[[2-(hydroxymethyl)-1-methyl-pyrrolidin-2-yl]methoxy]-1,3,5-triazin-2-yl]spiro[6H-thieno[3,4-b]thiophene-4,3′-azetidine]-3-carbonitrile], the IC50 is below 10 nM in test [1], below 10 nM in test [2], 10 to 100 nM in test [3] and 10 to 100 nM in test [4].
As to `N#Cc1c(N)sc2c1C1(CN(c3nc(OC[C@@]45CCCN4C[C@H](F)C5)nc(N4CCOCC(C#N)C4)n3)C1)SC2` (stereo partly drawn) [Compound 146, 4-[4-(2-amino-3-cyano-spiro[6H-thieno[3,4-b]thiophene-4,3′-azetidine]-1′-yl)-6-[[(2R,8S)-2-fluoro-1,2,3,5,6,7-hexahydropyrrolizin-8-yl]methoxy]-1,3,5-triazin-2-yl]-1,4-oxazepane-6-carbonitrile], the IC50 in test [1] is 10 to 100 nM; in test [2], below 10 nM; in test [3], 100 to 1000 nM; in test [4], 100 to 1000 nM.
`C[C@@]1(O)CCCN(c2nc(OCC3(CN4CCOCC4)CC3)nc(N3CC4(C3)c3c(sc(N)c3C#N)CC4(F)F)n2)C1` [Compound 98, 2-amino-5,5-difluoro-1′-[4-[(3R)-3-hydroxy-3-methyl-1-piperidyl]-6-[[1-(morpholinomethyl)cyclopropyl]methoxy]-1,3,5-triazin-2-yl]spiro[6H-cyclopenta[b]thiophene-4,3′-azetidine]-3-carbonitrile]: the IC50 in test [1] is below 10 nM; in test [2] it was below 10 nM; in test [3] it was 10 to 100 nM; in test [4] it was 100 to 1000 nM.
On to `CC1(O)CC(F)CN(c2nc(OC[C@@]34CCCN3C[C@H](F)C4)nc(N3CC4(CCc5sc(N)c(C#N)c54)C3)n2)C1` (stereo partly drawn) [Compound 82, 2′-amino-1-(4-(5-fluoro-3-hydroxy-3-methylpiperidin-1-yl)-6-(((2R,7aS)-2-fluorotetrahydro-1H-pyrrolizin-7a(5H)-yl)methoxy)-1,3,5-triazin-2-yl)-5′,6′-dihydrospiro[azetidine-3,4′-cyclopenta[b]thiophene]-3′-carbonitrile], for which the concentration for half-maximal inhibition (IC50) in test [1] is below 10 nM; in test [2], below 10 nM; in test [3], 10 to 100 nM; in test [4], 100 to 1000 nM.
Regarding `N#CCC12CC1CCN(c1nc(OC[C@@]34CCCN3C[C@H](F)C4)nc(N3CC4(CCc5sc(N)c(C#N)c54)C3)n1)C2` (stereo partly drawn) [Compound 43, 2-amino-1′-[4-[1-(cyanomethyl)-3-azabicyclo[4.1.0]heptan-3-yl]-6-[[(2R,8S)-2-fluoro-1,2,3,5,6,7-hexahydropyrrolizin-8-yl]methoxy]-1,3,5-triazin-2-yl]spiro[5,6-dihydrocyclopenta[b]thiophene-4,3′-azetidine]-3-carbonitrile], the IC50 in test [1] was 10 to 100 nM; in test [2] it was 10 to 100 nM; in test [3], 1000 to 20000 nM; in test [4], 1000 to 20000 nM.
Consider `C=C1CN2CCCC2(COc2nc(N3CC4(CCc5sc(N)c(C#N)c54)C3)nc(N3CCC[C@@](C)(O)C3)n2)C1` (stereo partly drawn) [Compound 55, 2-amino-1′-[4-[(3R)-3-hydroxy-3-methyl-1-piperidyl]-6-[(6-methylene-2,3,5,7-tetrahydro-1H-pyrrolizin-8-yl)methoxy]-1,3,5-triazin-2-yl]spiro[5,6-dihydrocyclopenta[b]thiophene-4,3′-azetidine]-3-carbonitrile], for which the IC50 was below 10 nM in test [1], below 10 nM in test [2], 10 to 100 nM in test [3] and 100 to 1000 nM in test [4].
Turning to `CN(Cc1c(F)ccnc1N)c1nc(OC[C@@]23CCCN2C[C@H](F)C3)nc(N2CC3(C2)SCc2sc(N)c(C#N)c23)n1` [Compound 179, 2-amino-1′-[4-[(2-amino-4-fluoro-3-pyridyl)methyl-methyl-amino]-6-[[(2R,8S)-2-fluoro-1,2,3,5,6,7-hexahydropyrrolizin-8-yl]methoxy]-1,3,5-triazin-2-yl]spiro[6H-thieno[2,3-c]thiophene-4,3′-azetidine]-3-carbonitrile], the IC50 was 10 to 100 nM in test [1], below 10 nM in test [2], 100 to 1000 nM in test [3] and 10 to 100 nM in test [4].
For the compound `N#Cc1c(N)sc2c1C1(CC2)CN(c2nc(OC[C@@]34CCCN3C[C@H](F)C4)nc(N3CCCCC(C#N)C3)n2)C1` (stereo partly drawn) [Compound 74, 2-amino-1′-[4-(3-cyanoazepan-1-yl)-6-[[(2R,8S)-2-fluoro-1,2,3,5,6,7-hexahydropyrrolizin-8-yl]methoxy]-1,3,5-triazin-2-yl]spiro[5,6-dihydrocyclopenta[b]thiophene-4,3′-azetidine]-3-carbonitrile], the IC50 is 10 to 100 nM in test [1], below 10 nM in test [2], 100 to 1000 nM in test [3] and 100 to 1000 nM in test [4].
For `N#Cc1c(N)sc2c1C1(CC2)CN(c2nc(OC[C@@]34CCCN3C[C@H](F)C4)nc(N3CCCC(O)(C(F)F)C3)n2)C1` (stereo partly drawn) [Compound 87, 2-amino-1′-[4-[3-(difluoromethyl)-3-hydroxy-1-piperidyl]-6-[[(2R,8S)-2-fluoro-1,2,3,5,6,7-hexahydropyrrolizin-8-yl]methoxy]-1,3,5-triazin-2-yl]spiro[5,6-dihydrocyclopenta[b]thiophene-4,3′-azetidine]-3-carbonitrile], the IC50 lay within 10 to 100 nM in test [1], 10 to 100 nM in test [2], 100 to 1000 nM in test [3] and 1000 to 20000 nM in test [4].
As for `CCN(c1nc(OC[C@@H]2C[C@@H](F)CN2)nc(N2CC3(C2)SCc2sc(N)c(C#N)c23)n1)[C@H](C)c1cccnc1N` [Compound 209, 2-amino-1′-[4-[[(1R)-1-(2-amino-3-pyridyl)ethyl]-ethyl-amino]-6-[[(2S,4R)-4-fluoropyrrolidin-2-yl]methoxy]-1,3,5-triazin-2-yl]spiro[6H-thieno[3,4-b]thiophene-4,3′-azetidine]-3-carbonitrile], the IC50 in test [1] is below 10 nM; in test [2], below 10 nM; in test [3] it was below 10 nM; in test [4] it was 10 to 100 nM.
Turning to `CC(c1cccnc1N)N(C)c1nc(OCC2(CN3CCOCC3)CC2)nc(N2CC3(C2)SCc2sc(N)c(C#N)c23)n1` (stereo not drawn) [Compound 128, 2-amino-1′-[4-[1-(2-amino-3-pyridyl)ethyl-methyl-amino]-6-[[1-(morpholinomethyl)cyclopropyl]methoxy]-1,3,5-triazin-2-yl]spiro[6H-thieno[3,4-b]thiophene-4,3′-azetidine]-3-carbonitrile], the IC50 in test [1] is 10 to 100 nM; in test [2], below 10 nM; in test [3] it was 100 to 1000 nM; in test [4], 10 to 100 nM.
Turning to `CCN(c1nc(OC[C@@H]2CC(F)(F)CN2C)nc(N2CC3(C2)SCc2sc(N)c(C#N)c23)n1)[C@H](C)c1cccnc1N` [Compound 176, 2-amino-1′-[4-[[(1R)-1-(2-amino-3-pyridyl)ethyl]-ethyl-amino]-6-[[(2S)-4,4-difluoro-1-methyl-pyrrolidin-2-yl]methoxy]-1,3,5-triazin-2-yl]spiro[6H-thieno[3,4-b]thiophene-4,3′-azetidine]-3-carbonitrile], the IC50 in test [1] was 100 to 1000 nM; in test [2], below 10 nM; in test [3] it was 1000 to 20000 nM; in test [4] it was 10 to 100 nM.
